What was measured:
[1] = test system: primary CD8+ T-cells from melanoma bearing C57BL/6 mice; test: Transwell migration of primary CD8+ T-cells through collagen type-IV; assay type: cell-based, murine; details: peptide
Protocol: FIGS. 4A-4H. […] Briefly, membranes from transwell migration chambers were coated with either native collagen type-IV or denatured collagen type-IV. T-cell variants were incubated with non-specific control peptide CP, or the RGDKGE (SEQ ID NO: 1)-containing collagen peptide (P2) and seed on the coated transwell membranes. T-cells were allowed to migrate in the presence or absence of SDF-1 added to the lower chamber for approximately 1.5 hours. Cell migration was quantified by counting the number of crystal violet stained cells that had migrated through to the underside of the coated membrane. FIG. 4A. Jurkat T-cell migration through denatured collagen type-IV in the presence of non-specific control peptide CP or RGDKGE (SEQ ID NO: 1)-containing collagen peptide P2 with SDF-1. FIG. 4B. Jurkat T-cell migration through native collagen type-IV in the presence of non-specific control peptide CP or RGDKGE (SEQ ID NO: 1)-containing collagen peptide P2 with SDF-1. FIG. 4C. Cem/C1 T-cell migration through denatured collagen type-IV in the presence of non-specific control peptide CP or RGDKGE (SEQ ID NO: 1)-containing collagen peptide P2 with SDF-1. FIG. 4D. […]
FIGS. 5A-5F. […] Cell migration was quantified by counting the number of crystal violet stained cells that had migrated through to the underside of the coated membrane. […]

[2] = test system: primary murine CD4+ Treg cells; test: Migration of primary CD4+ Treg cells on denatured collagen type-IV; assay type: cell-based; details: Treg from spleens of B16F10 tumor bearing mice, compared to CP
Protocol: Briefly, mice (C57BL/6) were injected subcutaneously with B16F10 cells. B16F10 tumors were allowed to grow for 14-days to allow formation of solid malignant melanomas. Spleens from tumor bearing mice were dissected and primary murine CD4+ Treg cells were isolated and analyzed for the effects of the soluble collagen peptide (P2) or control peptide (CP) on cell migration on denatured collagen type-IV. Data bars represent mean CD4+ Treg cell migration+SE from 3 wells per condition.
Given our surprising finding that CD4+ Treg cell migration is enhanced on denatured collagen-IV as compared to native collagen-IV, we next tested whether CD4+ Treg cell migration through denatured collagen-IV is altered by endogenously generated soluble RGDKGE (SEQ ID NO: 1) collagen peptide P2. For these experiments, mice (C57BL/6) were injected subcutaneously with B16F10 cells. B16F10 tumors were allowed to grow for 14-days to allow formation of solid malignant melanomas. Spleens from tumor bearing mice were dissected and primary murine CD4+ Treg cells were isolated and analyzed for the effects of the soluble collagen peptide (P2) or control peptide (CP) on cell migration on denatured collagen type-IV. […]

[3] = test system: angiogenesis and inflammation; details: peptide; cited from earlier work

QGPRGDKGE (CQGPRGDKGEC; Synthetic: Synthetic collagen RGD containing peptide P-2) [Peptide P2, synthetic version of the soluble RGDKGE-containing collagen peptide]
primary murine CD8+ T-cell migration ([1]; denatured collagen type-IV, SDF-1, compared to CP): selectively inhibited | primary murine CD8+ T-cell migration ([1]; native collagen type-IV, SDF-1): neither the RGDKGE (SEQ ID NO: 1) collagen peptide P2, nor the non-specific control peptide CP had any significant impact | mean CD4+ Treg cell migration cell count [2]: significant increase | induction of angiogenesis and inflammation in vivo [3]: significantly induced angiogenesis and inflammation
